Experimental data from ChEMBL document CHEMBL4725230, “Syntheses and pharmacokinetic evaluations of four metabolites of 2-(4-(2-((1H-benzo[d]imidazol-2-yl)thio)ethyl)piperazin-1-yl)-N-(6-methyl-2,4-bis-(methylthio)pyridin-3-yl)acetamide hydrochloride [K-604], an acyl-CoA:cholesterol O-acyltransferase-1 inhibitor” (Bioorg Med Chem, 2020).

Test: Retention time of the compound in human liver microsomes after 5 mins in presence of NADPH by LC-MS/MS analysis
Assay type: ADME, Microsome

CSc1nc(C)cc([S+](C)[O-])c1NC(=O)CN1CCN(CCSc2nc3ccccc3[nH]2)CC1 (configuration not stated)
Retention_time: 3.37 min

CSc1cc(C)nc(SC)c1NC(=O)CN1CCN(CC[S+]([O-])c2nc3ccccc3[nH]2)CC1 (configuration not stated)
Retention_time: 5.78 min
